Read-outs that look alike come from different tables or passages of the source.
Assays:
C. albicans ATCC® 10231 = test: Broth dilution method: MIC and synergy; format: cell-based, Candida albicans; settings: for MIC: RPMI-1640, 35° C., 48 h; for MIC in combination with benzydamine: in combination with benzydamine 0.125 mg/ml
Procedure: (§1) Candida strains stored at −80° C. were thawed and streaked on SDA plate and then a second subculture was performed. Then, Candida strains suspensions were prepared as follows.
(§2) 10 ml of saline were placed in a 50 ml falcon tube with 5 g of glass beads. Loopful of the cells of the colonies of the second subculture were transferred into the saline and suspended by rubbing the loop against the wet wall of the tube to dislodge the cells. The tube was then shacked for 3 minutes using a mechanical shaker.
(§3) The number of cells in the suspension was adjusted from 1.5×10^6 to 5.0×10^6 colony forming units (CFU)/ml using saline according to Mc Farland standard No. 0.5 standard and reading the optical density at 550 nm.
(§4) For counting, serially 1:10 dilutions were prepared using saline, to obtain 10^−4 and 10^−5 dilutions of the suspension. A sample of 100 μl of each dilution was spread plate and incubated at 37° C. for 48 h.
(§5) The methodology used for the broth dilution method was similar to that disclosed in “EUCAST Definitive Document EDef 7.1: method for the determination of broth dilution MICs of antifungal agents for fermentative yeasts” (Clin Microbiol Infect 2008; 14: 398-408).
(§6) Then, serial 1:2 dilutions were prepared in DMSO, to concentrations from 10.0 mg/ml to 0.078 mg/ml. These solutions were further diluted 1:100 in RPMI-1640 (GiBCO® by Life Technologies) containing 2% glucose, 3-(N-morpholino) propanesulfonic acid (MOPS, by SIGMA) without NaHCO3, to final concentration from 100 μg/ml to 0.78 μg/ml.
as §6, with “from 1.250” for “from 10.0”, “to 0.0196” for “to 0.078”, “from 12.50” for “from 100”, “to 0.196” for “to 0.78”
as §6, with “from 5.0” for “from 10.0”, “to 0.3125” for “to 0.078”, “from 50” for “from 100”, “to 3.125” for “to 0.78”
(§7) Benzydamine was dissolved in water to a concentration of 25 mg/ml. Then, serial 1:2 dilutions were prepared in water, to concentrations from 25 mg/ml to 3.125 mg/ml. 1 ml of each solution was added to 24 ml (1:25 dilution) of RPMI-1640 (GiBCO® by Life Technologies) containing 2% glucose, 3-(N-morpholino) propanesulfonic acid (MOPS, by SIGMA) without NaHCO3, to final concentration from 1 mg/ml to 0.125 mg/ml.
As positive control Amphotericin B from a stock solution of 1600 μg/ml was diluted in DMSO to solutions having concentrations from 200 μg/ml to 50 μg/ml. These solutions were diluted 1:100 in RPMI-1640 (GiBCO®, by Life Technology) containing 2% glucose, 3-(N-morpholino) propanesulfonic acid (MOPS, by SIGMA) without NaHCO3, to concentrations from 2 μg/ml to 0.5 μg/ml.
(§8) (B) For synergy studies, further solutions of econazole, miconazole, clotrimazole and fluconazole nitrate having concentrations from 100 μg/ml to 0.049 μg/ml were prepared in RPMI-1640 as disclosed in paragraph 1.3.1(A).
(§9) Also, further solutions of benzydamine having concentrations from 1 mg/ml to 0.25 mg/ml were prepared in RPMI-1640 as disclosed in paragraph 1.3.1(A). Moreover, the solution of benzydamine with a concentration of 1 mg/ml was further diluted 1:1.43 with RPMI-1640 to concentration of 0.7 mg/ml.
(§10) Microdilution plates containing wells with a nominal capacity of about 300 μL/well were used.
(§11) The Candida strains suspensions prepared as described in paragraph 1.1 were grown on Sabouraud's agar medium SDA (Oxoid). Colonies were diluted in phosphate-buffered saline (PBS) and suspensions were adjusted to approximately 1-5×10^5 CFU/ml using Mc Farland 0.5 standard and reading the optical density at 550 nm.

C. tropicalis ATCC® 750 = test: Broth dilution method: MIC and synergy (FIC); format: cell-based, Candida tropicalis; settings: for MIC: RPMI-1640, 35° C., 48 h; for MIC in combination with benzydamine: in combination with benzydamine 0.175 mg/ml
Procedure: as §1, §2, §3, §4, §5, §6
as §6, with “from 1.250” for “from 10.0”, “to 0.0196” for “to 0.078”, “from 12.50” for “from 100”, “to 0.196” for “to 0.78”
as §6, with “from 5.0” for “from 10.0”, “to 0.3125” for “to 0.078”, “from 50” for “from 100”, “to 3.125” for “to 0.78”
as §7, §8, §9, §10, §11
(§12) (A) For the calculation of the MIC, microdilution plates containing in each well 100 μl of each solution of the active ingredients obtained as described in paragraph 1.3.1(A) were prepared. The wells were then inoculated with 100 μl of Candida strains suspensions obtained as disclosed above containing 1-5×10^5 CFU/ml.

[1] = system: C. albicans ATCC® MYA-574 fluconazole resistant; test: Broth dilution method: MIC and synergy; format: cell-based, Candida albicans; settings: for MIC: Candida albicans, active ingredient alone, RPMI-1640, 35° C., 48 h
Procedure: as §1, §2, §3, §4, §5, §6, §7, §8, §9, §10, §11, §12
(§13) In each well, the final inoculum density and the final concentration of the active ingredients was half of that used (i.e. the final inoculum density was 0.5-2.5×10^5 CFU/ml, the concentration of econazole and miconazole was from 50 μg/ml to 0.39 μg/ml, the concentration of clotrimazole was from 6.25 μg/ml to 0.098 μg/ml, the concentration of fluconazole was from 50 μg/ml to 3.125 μg/ml and the concentration of benzydamine was from 0.5 mg/ml to 0.0625 mg/ml).
(§14) The microdilution plates were incubated for 48 hours at 35° C.
(§15) (B) For synergy studies, microdilution plates containing in each well 50 μl of each solution of econazole and miconazole and 50 μl of each solution of benzydamine, obtained as disclosed in paragraph 1.3.1(B), were prepared. Then, the wells were inoculated with 100 μl of the 1-5×10^5 CFU/ml Candida suspensions. […]

[2] = system: C. albicans ATCC® MYA-427; test: Broth dilution method: MIC and synergy; format: cell-based, Candida albicans; settings: for MIC: Candida albicans, active ingredient alone, RPMI-1640, 35° C., 48 h; for MIC in combination with benzydamine: in combination with benzydamine 0.125 mg/ml
Procedure: as §1, §2, §3, §4, §5, §6, §7, §8, §9, §10, §11, §12, §13, §14, §15

[3] = system: C. lusitaniae ATCC® 34449; test: Agar dilution method: MIC and synergy (FIC); format: cell-based, Candida lusitaniae; settings: for MIC: Clavispora lusitaniae, ATCC34449, active ingredient alone, agar dilution, Sabouraud agar, 35° C., 48 h, complete inhibition of growth
Procedure: Candida strains stored at -80° C. were thawed and streaked on SDA plate and then a second subculture was performed. Then, Candida strains suspensions were prepared as follows. 10 ml of saline were placed in a 50 ml falcon tube with 5 g of glass beads. Loopful of the cells of the colonies of the second subculture were transferred into the saline and suspended by rubbing the loop against the wet wall of the tube to dislodge the cells. The tube was then shacked for 3 minutes using a mechanical shaker. The number of cells in the suspension was adjusted from 1.5×10^6 to 5.0×10^6 colony forming units (CFU)/ml using saline according to Mc Farland standard No. 0.5 standard and reading the optical density at 550 nm. For counting, serially 1:10 dilutions were prepared using saline, to obtain 10^-4 and 10^-5 dilutions of the suspension. A sample of 100 μl of each dilution was spread plate and incubated at 37° C. for 48 h. […] The methodology was similar to that disclosed by R. Moody et al., “In Vitro Activities of Miconazole, Miconazole Nitrate, and Ketoconazole Alone and Combined with Rifampin against Candida spp. and Torulopsis glabrata Recovered from Cancer Patients.”, Antimicrobial Agents and Chemotherapy: 1980, 17, 871-875. Standard Petri dishes (92 mm diameter×16 mm height) were used. After the agar was poured, plates were allowed to cool and then immediately used. […] All the Petri dishes were incubated at 35° C. for 48 h. (B) For synergy studies, the surface of each Petri dish prepared as described in paragraph 1.2.1(B) was inoculated with four spots (20 μl inoculum volume) of the Candida strains suspensions prepared as described in paragraph 1.1, and incubated at 35° C. for 48 hours. The lowest concentration of drug that produced a complete inhibition of growth for a certain Candida strain was regarded as the minimal inhibitory concentration (MIC) for said strain. […] The synergistic effect of the combinations comprising benzydamine and econazole nitrate was evaluated by calculating the fractional inhibitory concentration (FIC), in accordance with […]. et al. in Antimicrobial Agents and Chemotherapy, February 2010, p. 602-609. […] FIC[combination b+e]=[…]] is the fractional inhibitory concentration of benzydamine with respect to a specific Candida strain, calculated as the ratio between the MIC of benzydamine in the presence of a sub-MIC amount of econazole (MIC(b+e)) and the MIC of benzydamine alone (MIC(b)), as follows: FIC[e] is the fractional inhibitory concentration of econazole with respect to a specific Candida strain, calculated as the ratio between the MIC of econazole in the presence of a sub-MIC amount of benzydamine (MIC(e+b)) and the MIC of econazole alone (MIC(e)), as follows: […]

[4] = Candida tropicalis, ATCC750, active ingredient alone, read-out: MIC
[5] = Candida albicans, ATCC10231, active ingredient alone, read-out: MIC

Row | Compound | MIC (C. albicans ATCC® 10231; active ingredient alone) [µg/mL] | MIC (C. tropicalis ATCC® 750; [4]) [µg/mL] | MIC [1] [µg/mL] | MIC of benzydamine in combination with econazole ([1]; in combination with econazole) [µg/mL] | MIC of benzydamine in combination with miconazole ([1]; in combination with miconazole) [µg/mL] | MIC [2] [µg/mL] | MIC (C. albicans ATCC® 10231; [5]) [µg/mL] | MIC [3] [µg/mL] | FIC[b] (fractional inhibitory concentration of benzydamine) ([3]; MIC of benzydamine in presence of sub-MIC econazole / MIC of benzydamine alone) | MIC in combination with benzydamine (C. tropicalis ATCC® 750) [µg/mL] | MIC in combination with benzydamine [1] [µg/mL] | MIC in combination with benzydamine [2] [µg/mL] | MIC in combination with benzydamine (C. albicans ATCC® 10231) [µg/mL] | FIC[e] (fractional inhibitory concentration of econazole) ([3]; MIC of econazole in presence of sub-MIC benzydamine / MIC of econazole alone) | MIC (C. tropicalis ATCC® 750; active ingredient alone) [µg/mL]
1 | C[C@@H]1[C@H](O)[C@@H](C)/C=C/C=C/C=C/C=C/C=C/C=C/C=C/[C@H](O[C@@H]2O[C@H](C)[C@@H](O)[C@H](N)[C@@H]2O)C[C@@H]2O[C@](O)(C[C@@H](O)C[C@@H](O)[C@H](O)CC[C@@H](O)C[C@@H](O)CC(=O)O[C@H]1C)C[C@H](O)[C@H]2C(=O)O [Amphotericin B] | 0.5 | – | – | – | – | – | – | – | – | – | – | – | – | – | –
2 | CN(C)CCCOc1nn(Cc2ccccc2)c2ccccc12 [Benzydamine] | – | 500 | 500 | 125 | 62.5 | 500 | 500 | 500 | 0.25 | – | – | – | – | – | –
3 | Clc1ccc(COC(Cn2ccnc2)c2ccc(Cl)cc2Cl)cc1 (stereo not drawn) [Econazole nitrate] | – | 12.5 | 25 | – | – | 25 | 25 | 1.56 | – | 1.56 | 12.5 | 1.56 | 3.125 | 0.0628 | –
4 | Clc1ccc(COC(Cn2ccnc2)c2ccc(Cl)cc2Cl)c(Cl)c1 (stereo not drawn) [Miconazole nitrate] | – | 6.25 | 50 | – | – | 25 | 6.25 | – | – | 0.78 | 12.5 | 0.78 | 1.56 | – | –
5 | Clotrimazole nitrate | 0.025 | – | – | – | – | – | – | – | – | 0.098 | – | – | – | – | 6.25
6 | Fluconazole nitrate | 3.125 | – | – | – | – | – | – | – | – | 6.25 | – | – | – | – | 50
